Data reported in US20250270200A1, “CTPS1 INHIBITORS AND USES THEREOF” (Nimbus Clotho, Inc., priority 2022, published 2025).
Counter-ions that a name gives are not always drawn.

Each molecule was assayed against T1, human CTPS1 (Homo sapiens, UniProt P17812) (assay: ADP-Glo assay, human CTPS1 enzyme inhibition). Conditions: wild-type human CTPS1 25 nM; ATP 120 μM, UTP 160 μM, GTP 60 μM, L-glutamine 100 μM; 25 degrees C.; read-out: ADP-Glo_WT_hCTPS1—25 nM_IC50 (IC50).
T1 sequence (P17812 1-591): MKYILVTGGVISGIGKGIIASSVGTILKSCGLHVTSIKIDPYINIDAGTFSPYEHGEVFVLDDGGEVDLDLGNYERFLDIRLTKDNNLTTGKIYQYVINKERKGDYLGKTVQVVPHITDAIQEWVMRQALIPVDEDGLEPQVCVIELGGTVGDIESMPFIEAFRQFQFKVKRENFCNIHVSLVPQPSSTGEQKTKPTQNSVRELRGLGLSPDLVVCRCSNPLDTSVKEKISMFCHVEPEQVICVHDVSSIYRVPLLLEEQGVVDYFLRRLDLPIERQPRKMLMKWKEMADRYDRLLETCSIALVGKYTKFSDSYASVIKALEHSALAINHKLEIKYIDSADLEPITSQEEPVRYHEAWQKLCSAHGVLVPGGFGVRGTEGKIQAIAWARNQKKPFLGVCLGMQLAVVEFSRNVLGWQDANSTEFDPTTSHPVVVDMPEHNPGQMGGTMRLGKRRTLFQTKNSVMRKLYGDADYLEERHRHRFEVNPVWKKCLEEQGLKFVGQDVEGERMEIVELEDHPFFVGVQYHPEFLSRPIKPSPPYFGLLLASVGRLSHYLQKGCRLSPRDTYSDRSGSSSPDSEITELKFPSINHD
Format: biochemical
Outline: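 Full-length tagged human CTPS1 (25 nM) pre-incubated 10 min at 25° C with compound, then 10 min with ATP (120 μM) and UTP (160 μM); reaction started with L-glutamine (100 μM) and GTP (60 μM), 1% DMSO, in HEPES pH 7.4, 10 mM Mg2+, 5 mM KCl, 2 mM DTT. Run within linear phase at 25° C; ADP measured by ADP-Glo luminescence.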

Row | IC50 | SMILES
1 | 25 to 50 nM | COC[C@@H](NC(=O)c1ncc(-c2cnn3ccc(Cl)cc23)s1)c1nccc(NS(=O)(=O)C2CC2)n1 (single isomer, unassigned) [II-10]
2 | 5 to 25 nM | O=C(N[C@H](c1nccc(NS(=O)(=O)C2CC2)c1F)[C@@H]1CCOC1)c1ncc(-c2cnn3ccc(Cl)cc23)s1 (single isomer, unassigned) [II-6]

Same assay, conditions: wild-type human CTPS1, 25 nM enzyme; ADP-Glo; read-out: ADP-Glo_WT_hCTPS1—25 nM_IC50 (IC50)

Row | SMILES | IC50
3 | CCOc1cncc(-c2cnc(C(=O)N[C@@H](c3cc(NS(=O)(=O)C4CC4)ccn3)[C@H]3CCCO3)s2)n1 [I-62, N-((S)-(4-(cyclopropanesulfonamido)pyridin-2-yl)((R)-tetrahydrofuran-2-yl)methyl)-5-(6-ethoxypyrazin-2-yl)thiazole-2-carboxamide] | 5 to 25 nM
4 | CCOc1cncc(-c2cnc(C(=O)N[C@H](CCN3CCCC4(CC4)C3)c3cc(NS(=O)(=O)C4CC4)ccn3)s2)n1 (single isomer, unassigned) [I-17] | ≤ 5 nM
5 | O=C(N[C@H](c1cc(NS(=O)(=O)C2CC2)ccn1)C1CCOCC1)c1ncc(-c2cnn3ccc(Cl)cc23)s1 [I-85, (S)-5-(5-chloropyrazolo[1,5-a]pyridin-3-yl)-N-((4-(cyclopropanesulfonamido)pyridin-2-yl)(tetrahydro-2H-pyran-4-yl)methyl)thiazole-2-carboxamide] | 25 to 50 nM
6 | CCOc1cncc(-c2ccc(C(=O)N[C@@H](CCN3CCCCC3)c3cc(NS(=O)(=O)C4CC4)ccn3)c(F)c2F)n1 (single isomer, unassigned) [I-6] | > 100 nM
7 | CCOc1cncc(-c2ccc(C(=O)N[C@@H](c3cc(NS(=O)(=O)C4CC4)ccn3)[C@@H]3CCCO3)nc2)n1 [I-69, N-((S)-(4-(cyclopropanesulfonamido)pyridin-2-yl)((S)-tetrahydrofuran-2-yl)methyl)-5-(6-ethoxypyrazin-2-yl)picolinamide] | 25 to 50 nM
8 | CCOc1cncc(-c2ccc(C(=O)N[C@H](CN3CCOCC3)c3cc(NS(=O)(=O)C4CC4)ccn3)c(F)c2)n1 [I-144, (R)-N-(1-(4-(cyclopropanesulfonamido)pyridin-2-yl)-2-morpholinoethyl)-4-(6-ethoxypyrazin-2-yl)-2-fluorobenzamide] | 5 to 25 nM
9 | CCOc1cncc(-c2cnc(C(=O)N[C@@H](c3cc(NS(=O)(=O)C4CC4)ccn3)[C@@H]3CCN(C4CC4)C3)s2)n1 [I-114, N-((R)-(4-(cyclopropanesulfonamido)pyridin-2-yl)((R)-1-cyclopropylpyrrolidin-3-yl)methyl)-5-(6-ethoxypyrazin-2-yl)thiazole-2-carboxamide] | 5 to 25 nM
10 | CCOc1cncc(-c2cnc(C(=O)N[C@H](CCN(C)C3CCCCC3)c3cc(NS(=O)(=O)C4CC4)ccn3)s2)n1 (single isomer, unassigned) [I-14] | 5 to 25 nM
11 | CCOc1cncc(-c2ccc(C(=O)N[C@H](c3cc(NS(=O)(=O)C4CC4)ccn3)[C@@H]3CCCO3)nc2)n1 [I-68, N-((R)-(4-(cyclopropanesulfonamido)pyridin-2-yl)((S)-tetrahydrofuran-2-yl)methyl)-5-(6-ethoxypyrazin-2-yl)picolinamide] | 25 to 50 nM
12 | CCOc1cncc(-c2cnc(C(=O)N[C@@H](CN3CC4(CCC4)C3)c3cc(NS(=O)(=O)C4CC4)ccn3)s2)n1 [I-153, (S)-N-(1-(4-(cyclopropanesulfonamido)pyridin-2-yl)-2-(2-azaspiro[3.3]heptan-2-yl)ethyl)-5-(6-ethoxypyrazin-2-yl)thiazole-2-carboxamide] | 25 to 50 nM
13 | CCOc1cncc(-c2cnc(C(=O)N[C@H](CN3C[C@H]4CC[C@@H]3C4)c3cc(NS(=O)(=O)C4CC4)ccn3)s2)n1 [I-150, N-((R)-2-((1R,4S)-2-azabicyclo[2.2.1]heptan-2-yl)-1-(4-(cyclopropanesulfonamido)pyridin-2-yl)ethyl)-5-(6-ethoxypyrazin-2-yl)thiazole-2-carboxamide] | 5 to 25 nM

Second part, the molecule after the results:

Row | IC50 | SMILES
14 | 5 to 25 nM | CCOc1cncc(-c2cnc(C(=O)N[C@H](c3cccc(NS(=O)(=O)C(F)F)c3)[C@H](C)O)s2)n1 [I-289, N-((1R,2S)-1-(3-((difluoromethyl)sulfonamido)phenyl)-2-hydroxypropyl)-5-(6-ethoxypyrazin-2-yl)thiazole-2-carboxamide]
15 | 50 to 100 nM | CC(C)(O)[C@H](NC(=O)c1ncc(-c2cnn3ccc(Cl)cc23)s1)c1cc(NS(=O)(=O)C2CC2)ccn1 [I-277, (R)-5-(5-chloropyrazolo[1,5-a]pyridin-3-yl)-N-(1-(4-(cyclopropanesulfonamido)pyridin-2-yl)-2-hydroxy-2-methylpropyl)thiazole-2-carboxamide]
16 | ≤ 5 nM | CCOc1cncc(-c2cnc(C(=O)N[C@H](c3cc(NS(=O)(=O)C4CC4)ccn3)[C@H](C)CO)s2)n1 [I-229, N-((1S,2S)-1-(4-(cyclopropanesulfonamido)pyridin-2-yl)-3-hydroxy-2-methylpropyl)-5-(6-ethoxypyrazin-2-yl)thiazole-2-carboxamide]
17 | 5 to 25 nM | CCOc1cncc(-c2cnc(C(=O)N[C@H](Cn3nccn3)c3cc(NS(=O)(=O)C4CC4)ccn3)s2)n1 [I-158, (R)-N-(1-(4-(cyclopropanesulfonamido)pyridin-2-yl)-2-(2H-1,2,3-triazol-2-yl)ethyl)-5-(6-ethoxypyrazin-2-yl)thiazole-2-carboxamide]
18 | 5 to 25 nM | CCOc1cncc(-c2cnc(C(=O)N[C@H](c3cccc(NS(=O)(=O)C(F)F)c3)C(C)(C)O)s2)n1 [I-291, (R)-N-(1-(3-((difluoromethyl)sulfonamido)phenyl)-2-hydroxy-2-methylpropyl)-5-(6-ethoxypyrazin-2-yl)thiazole-2-carboxamide]
19 | 50 to 100 nM | COC[C@@H](NC(=O)c1ccc(-c2cnn3ccc(Cl)cc23)cc1F)c1cc(NS(=O)(=O)C2CC2)ccn1 [I-285, (S)-4-(5-chloropyrazolo[1,5-a]pyridin-3-yl)-N-(1-(4-(cyclopropanesulfonamido)pyridin-2-yl)-2-methoxyethyl)-2-fluorobenzamide]
20 | 25 to 50 nM | CCOc1cncc(-c2cnc(C(=O)N[C@@H](c3cc(NS(=O)(=O)C4CC4)ccn3)[C@@H](C)N3C[C@H]4C[C@@H]3CO4)s2)n1 [I-169, N-((1R,2R)-2-((1R,4R)-2-oxa-5-azabicyclo[2.2.1]heptan-5-yl)-1-(4-(cyclopropanesulfonamido)pyridin-2-yl)propyl)-5-(6-ethoxypyrazin-2-yl)thiazole-2-carboxamide]
21 | 50 to 100 nM | CCOc1cncc(-c2cnc(C(=O)N[C@H](CN3C[C@H]4C[C@@H]3CO4)c3cncc(NS(=O)(=O)C4CC4)n3)s2)n1 [I-253, N-((R)-2-((1R,4R)-2-oxa-5-azabicyclo[2.2.1]heptan-5-yl)-1-(6-(cyclopropanesulfonamido)pyrazin-2-yl)ethyl)-5-(6-ethoxypyrazin-2-yl)thiazole-2-carboxamide, formic acid salt]
22 | 5 to 25 nM | CCOc1cncc(-c2cnc(C(=O)N[C@H](c3cc(NS(=O)(=O)C4CC4)ccn3)[C@H](C)O)s2)n1 [I-266, N-((1R,2S)-1-(4-(cyclopropanesulfonamido)pyridin-2-yl)-2-hydroxypropyl)-5-(6-ethoxypyrazin-2-yl)thiazole-2-carboxamide]
